Test results from patent US20120184590A1, “FORMULATIONS OF INDOLE-3-CARBINOL DERIVED ANTITUMOR AGENTS WITH INCREASED ORAL BIOAVAILABILITY” (UNIVERSITY OF KANSAS, priority 2009, published 2012).

Tests used:
[1] = Stability of SR13668 in Solutol (25° C. and 4° C.), HPLC/Fluorescence; assay type: physicochemical; details: for stability: 25° C. and 4° C.; for SR13668 assay, stability of SR13668/Solutol aqueous solution: aqueous sample (theoretical 1.2000); for SR13668 assay, stability in Solutol: solid sample in Eppendorf tube
Method: A batch of 5 mg SR13668/g Solutol was made by stirring at 95° C. for 24 hrs. […] The sample was centrifuged while warm and no crystals were observed on the bottom of the tube. The sample was assayed from the top, middle and bottom of the centrifuge tube and there was no significant difference in the measurements. The SR13668 assay is an isocratic HPLC method with Fluorescence detection. The SR13668 concentration in Solutol was determined to be 5.00±0.09 mg/g (n=5).
Three types of samples from the above formulation (a. Solid Samples, b. Aqueous Solution and c. Solid stored and combined with water before assay) were stored at 25° C. (constant temperature bath) and 4° C. (refrigerator) and assayed weekly with the same HPLC/Fluorescence analytical method for 1-month.
Eppendorf tubes containing 1-mL samples of the above 5 mg SR13668/g Solutol solution were capped and stored under the two temperature conditions described above. At each time point the samples were melted and centrifuged at 95° C. No solids were ever observed in these samples.
In a 50-mL centrifuge tube, 12 g of the 5 mg SR13668/g Solutol melt was accurately weighed. The tube was tared and water, warmed to 70° C., was added to the 50 mL mark on the tube and weighed. The concentration of SR13668 in the aqueous solution was calculated based on the average SR13668/Solutol concentration of 5.00±0.09 mg/g, the weight of the Solutol and the total weight of solution in the tube. The tube was stored under the two temperature conditions described previously and the assayed amounts were compared with the theoretical. Observations were made on the tubes and there were no significant changes in the solutions and no solids were observed. The 25° C. tube did get a cloudy film layer, possibly biological growth. The layer dispersed after vigorous shaking. The 4° C. samples are cloudy, but clear up when warmed to room temperature. See results Table 8 and FIG. 5.
An accurately weighed 200 mg aliquot of the above 5 mg/g Solutol solution was stored at 25° C. and 4° C. At each time point, the solids were melted at 90° C. and 800 mg of accurately weighed 90° C. water was added. The samples were mixed and observations made. In all cases no solids were observed. A sample aliquot of the above aqueous solution was analyzed by HPLC/Fluorescence and the results compared with theoretical. See results Table 9 and FIG. 6. The analytical method is validated ±5% from theoretical. The majority of the samples fell within this limit.

[2] = Oral bioavailability of PEG400:Labrasol formulation in rats; details: rat, in vivo
[3] = stored as solid, prepared as aqueous solution, 4° C. storage, 0
[4] = stored as solid, prepared as aqueous solution, 4° C. storage, Day
[5] = stored as solid, prepared as aqueous solution, 4° C. storage, Day 7
[6] = stored as solid, prepared as aqueous solution, 4° C. storage, Day 14
[7] = stored as solid, prepared as aqueous solution, 4° C. storage, Day 21
[8] = stored as solid, prepared as aqueous solution, 4° C. storage, Day 28
[9] = stored as solid, prepared as aqueous solution, 25° C. storage, 0
[10] = stored as solid, prepared as aqueous solution, 25° C. storage, Day
[11] = stored as solid, prepared as aqueous solution, 25° C. storage, Day 7
[12] = stored as solid, prepared as aqueous solution, 25° C. storage, Day 14
[13] = stored as solid, prepared as aqueous solution, 25° C. storage, Day 21
[14] = stored as solid, prepared as aqueous solution, 25° C. storage, Day 28

## CCOC(=O)c1ccc2[nH]c3c(OC)c4[nH]c5ccc(C(=O)OCC)cc5c4cc3c2c1 [SR13668, 2,10-dicarbethoxy-6-methoxy-5,7-dihydro-indolo-(2,3-b)carbazole]
[1]; 5 mg SR13668/g Solutol, solid samples
  stability: stable within the error of the assay and no degradation was observed
[1]; SR13668/Solutol aqueous solution
  stability: stable within error and no drug degradation was observed
[1]; 4° C. storage, Day
  SR13668 assay, stability of SR13668/Solutol aqueous solution: 1.1384 mg SR13668/g Solutol
  SR13668 assay, stability in Solutol: 5.05 mg SR13668/g Solutol
[1]; 4° C. storage, Day 7
  SR13668 assay, stability of SR13668/Solutol aqueous solution: 1.1758 mg SR13668/g Solutol
  SR13668 assay, stability in Solutol: 4.97 mg SR13668/g Solutol
[1]; 4° C. storage, Day 14
  SR13668 assay, stability of SR13668/Solutol aqueous solution: 1.1981 mg SR13668/g Solutol
  SR13668 assay, stability in Solutol: 5.33 mg SR13668/g Solutol
[1]; 4° C. storage, Day 21
  SR13668 assay, stability of SR13668/Solutol aqueous solution: 1.2509 mg SR13668/g Solutol
  SR13668 assay, stability in Solutol: 5.06 mg SR13668/g Solutol
[1]; 4° C. storage, Day 28
  SR13668 assay, stability of SR13668/Solutol aqueous solution: 1.1985 mg SR13668/g Solutol
  SR13668 assay, stability in Solutol: 4.97 mg SR13668/g Solutol
[1]; 4° C. storage, Day 35
  SR13668 assay, stability of SR13668/Solutol aqueous solution: 1.1814 mg SR13668/g Solutol
  SR13668 assay, stability in Solutol: 4.87 mg SR13668/g Solutol
[1]; 25° C. storage, Day
  SR13668 assay, stability of SR13668/Solutol aqueous solution: 1.5040 mg SR13668/g Solutol
  SR13668 assay, stability in Solutol: 4.93 mg SR13668/g Solutol
[1]; 25° C. storage, Day 7
  SR13668 assay, stability of SR13668/Solutol aqueous solution: 1.1311 mg SR13668/g Solutol
  SR13668 assay, stability in Solutol: 5.10 mg SR13668/g Solutol
[1]; 25° C. storage, Day 14
  SR13668 assay, stability of SR13668/Solutol aqueous solution: 1.2256 mg SR13668/g Solutol
  SR13668 assay, stability in Solutol: 5.19 mg SR13668/g Solutol
[1]; 25° C. storage, Day 21
  SR13668 assay, stability of SR13668/Solutol aqueous solution: 1.2663 mg SR13668/g Solutol
  SR13668 assay, stability in Solutol: 5.14 mg SR13668/g Solutol
[1]; 25° C. storage, Day 28
  SR13668 assay, stability of SR13668/Solutol aqueous solution: 1.2116 mg SR13668/g Solutol
  SR13668 assay, stability in Solutol: 5.00 mg SR13668/g Solutol
[1]; 25° C. storage, Day 35
  SR13668 assay, stability of SR13668/Solutol aqueous solution: 1.1942 mg SR13668/g Solutol
  SR13668 assay, stability in Solutol: 4.93 mg SR13668/g Solutol
[1]; 4° C. storage, 0 (t = 0 melt samples)
  SR13668 assay, stability in Solutol: 5.00 mg SR13668/g Solutol
[1]; 25° C. storage, 0 (t = 0 melt samples)
  SR13668 assay, stability in Solutol: 5.00 mg SR13668/g Solutol
[1]; stored as solid, prepared as aqueous solution
  stability: no trends or indications that the samples are unstable
[1]; [3]
  % difference from Theory: −6.71%
  Measured mg SR13668/g Solutol: 0.9238 mg SR13668/g Solutol
[1]; [4]
  % difference from Theory: −7.00%
  Measured mg SR13668/g Solutol: 0.8804 mg SR13668/g Solutol
[1]; [5]
  % difference from Theory: 0.78%
  Measured mg SR13668/g Solutol: 0.9866 mg SR13668/g Solutol
[1]; [6]
  % difference from Theory: 2.91%
  Measured mg SR13668/g Solutol: 1.0608 mg SR13668/g Solutol
[1]; [7]
  % difference from Theory: −2.29%
  Measured mg SR13668/g Solutol: 0.9809 mg SR13668/g Solutol
[1]; [8]
  % difference from Theory: −4.87%
  Measured mg SR13668/g Solutol: 0.9160 mg SR13668/g Solutol
[1]; [9]
  % difference from Theory: −11.50%
  Measured mg SR13668/g Solutol: 0.8630 mg SR13668/g Solutol
[1]; [10]
  % difference from Theory: −6.56%
  Measured mg SR13668/g Solutol: 0.9955 mg SR13668/g Solutol
[1]; [11]
  % difference from Theory: 3.38%
  Measured mg SR13668/g Solutol: 1.0308 mg SR13668/g Solutol
[1]; [12]
  % difference from Theory: 3.40%
  Measured mg SR13668/g Solutol: 0.9609 mg SR13668/g Solutol
[1]; [13]
  % difference from Theory: −5.45%
  Measured mg SR13668/g Solutol: 0.9374 mg SR13668/g Solutol
[1]; [14]
  % difference from Theory: −4.84%
  Measured mg SR13668/g Solutol: 0.9372 mg SR13668/g Solutol
[2]
  bioavailability: < 1%
